Test [1] addresses T1, sucrose transporter from spinach (Spinacia oleracea, UniProt Q03411).
T1 construct: which contain, as inserts, the cDNA for the sucrose transporter from spinach; expressed in transfected cells; host or cells: Saccharomyces cerevisiae YSH2.64-1A suc- with integrated potato sucrose synthase (susy), transformed with YEplac112A1NE-S21
T1 sequence (Q03411 1-525): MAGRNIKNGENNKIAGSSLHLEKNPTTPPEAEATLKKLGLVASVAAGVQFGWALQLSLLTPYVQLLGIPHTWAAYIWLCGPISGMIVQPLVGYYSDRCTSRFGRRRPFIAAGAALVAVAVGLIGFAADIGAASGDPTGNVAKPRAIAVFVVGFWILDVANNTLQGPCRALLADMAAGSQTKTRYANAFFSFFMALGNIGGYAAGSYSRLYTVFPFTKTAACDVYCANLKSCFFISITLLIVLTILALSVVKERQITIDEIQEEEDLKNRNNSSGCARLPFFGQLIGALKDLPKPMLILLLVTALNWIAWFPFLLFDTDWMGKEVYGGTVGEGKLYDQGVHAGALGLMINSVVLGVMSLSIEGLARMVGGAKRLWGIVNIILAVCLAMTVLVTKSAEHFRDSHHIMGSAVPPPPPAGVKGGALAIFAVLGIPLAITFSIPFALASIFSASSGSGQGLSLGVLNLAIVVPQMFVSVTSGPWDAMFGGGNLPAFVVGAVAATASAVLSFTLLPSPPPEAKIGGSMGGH
The test can be described thus: cell-based. The method, then: Time pattern of the uptake of sucrose in yeast cells. "pmol/mg cells"=amount of the ^14 C-labelled sucrose in pmol taken up in relation to the moisture weight of the yeast cells per mg; "112"=starting strain (without transporter); "+Glucose"=pre-incubation of the cells in a medium of 10 mM glucose; "-Glucose"=no pre-incubation of the cells; […], carbonyl cyanide m-chlorophenylhydrazone (CCCP) in a concentration of 2.5 μM; […] p-chloromercuribenzenesulfonicacid (PCMBS) in a concentration of 500 μM; […] antimycin in a concentration of 10 μM.
After centrifuging the culture, the cells were subjected to a pre-incubation for 5 minutes in a glucose containing medium and then taken up in a medium containing ^14 C-labelled sucrose. The uptake of the labelled sucrose was measured by the process described by Cirillo (1989, Meth Enzymol 174: 617-622). The uptake of the labelled sucrose without preincubation with glucose was compared with that with co-incubation with the inhibitors carbonyl cyanide m-chlorophenylhydrazone(CCCP), p-chloromercuribenzenesulfonic acid (PCMBS) and antimycin.

Test [2] concerns the target T1, sucrose transporter from spinach. The test can be described thus: Competition experiment with various sugars as competitor for the labelled sucrose in yeast YEplac112A1NE-S21. As to conditions: in relation to YEplac112A1NE-S21 control = 100; for activity at 2000 µM: 2mM competitor; for activity at 2000 µM / activity at 10000 µM: read-out: sucrose transport (%). The test is classed as cell-based. The protocol: The yeast transformand YEplac112A1NE-S21, corresponding to that obtained in Example 2, was grown in liquid medium until the culture had reached the logarithmic phase. After centrifuging the culture, the cells were subjected to a pre-incubation for 5 minutes in a glucose containing medium and then taken up in a medium containing ^14 C-labelled sucrose. The uptake of the labelled sucrose was measured by the process described by Cirillo (1989, Meth Enzymol 174: 617-622). The uptake of the labelled sucrose without preincubation with glucose was compared with that with co-incubation with the inhibitors carbonyl cyanide m-chlorophenylhydrazone(CCCP), p-chloromercuribenzenesulfonic acid (PCMBS) and antimycin. The calculated reduction of the sucrose uptake by the inhibitors is shown in table I. A competition experiment with various sugars as competitor for the labelled sucrose, from which the specificity of the transporter can be read off, is shown in table II.

For test [3], the system named is sucrose transport through the membrane. As to conditions: plasma membranes; Slone & Buckhout, 1991; cited from earlier work.
Where [4] appears, read: read-out: sucrose transport (%).

In the case of `O=[N+]([O-])c1ccc(O)c([N+](=O)[O-])c1` [2,4-DNP, 2,4dinitrophenol], in test [1] (setting [4]), the activity at 25 µM turned out to be 61% and the activity at 100 µM was 9%.

In the case of `N#CC(C#N)=NNc1cccc(Cl)c1` [CCCP, carbonyl cyanide m-chlorophenylhydrazone], the activity at 0.5 µM in test [1] (0.5μM inhibitor, in relation to YEplac112A1NE-S21 control = 100, read-out: sucrose transport (%)) is 65%. Besides, the activity at 2.5 µM in test [1] (2.5μM inhibitor, in relation to YEplac112A1NE-S21 control = 100, read-out: sucrose transport (%)) was determined as 21%.

Regarding `O=S(=O)(O)c1cc[c]([Hg][Cl])cc1` [PCMBS, p-chloromercuribenzenesulfonic acid], the “sucrose transport (%)” value in test [1] (25μM inhibitor, in relation to YEplac112A1NE-S21 control = 100) came out at 73%; in test [1] (100μM inhibitor, in relation to YEplac112A1NE-S21 control = 100), 21%.

As for `OC[C@H]1O[C@@H](O[C@H]2[C@H](O)[C@@H](O)C(O)O[C@@H]2CO)[C@H](O)[C@@H](O)[C@H]1O` (some centres unmarked) [lactose], the activity at 2000 µM in test [2] was 91%.

As to `OC[C@H]1O[C@H](O[C@H]2[C@H](O)[C@@H](O)[C@H](O)O[C@@H]2CO)[C@H](O)[C@@H](O)[C@@H]1O` [maltose], in test [2], the activity at 2000 µM is 58%. For the same molecule, in test [2] (10mM competitor), the activity at 10000 µM is 37%.

Consider `OC[C@H]1O[C@H](OC[C@H]2OC(O)(CO)[C@@H](O)[C@@H]2O)[C@H](O)[C@@H](O)[C@@H]1O` (some centres unmarked) [palatinose], for which the “sucrose transport (%)” value in test [2] (10mM competitor) was determined as 102%.

Regarding `OC[C@H]1OC(Oc2ccccc2)[C@H](O)[C@@H](O)[C@@H]1O` (some centres unmarked) [phenylglucoside], in test [2], the activity at 2000 µM stood at 7%.

On to `O=C(CCc1ccc(O)cc1)c1c(O)cc(O)cc1O[C@@H]1O[C@H](CO)[C@@H](O)[C@H](O)[C@H]1O` [phloridzin], for which, in test [2], the activity at 2000 µM amounted to 16%.

For `O=[As]([O-])([O-])O.[Na+].[Na+]` [sodium arsenate], the “sucrose transport (%)” value in test [1] (1mM inhibitor, in relation to YEplac112A1NE-S21 control = 100) was determined as 34%.

The Km is the substrate concentration at which the rate is half of its maximum. For `OC[C@H]1O[C@@](CO)(O[C@H]2O[C@H](CO)[C@@H](O)[C@H](O)[C@H]2O)[C@@H](O)[C@@H]1O` [sucrose], the Km in test [3] was approximately 1000 µM. In addition, the activity at 2000 µM in test [2] turned out to be 28%.

With `OC[C@H]1O[C@H](O[C@H]2O[C@H](CO)[C@@H](O)[C@H](O)[C@H]2O)[C@H](O)[C@@H](O)[C@@H]1O` [trehalose], the activity at 10000 µM in test [2] (10mM competitor) worked out at 103%.

With antimycin A, in test [1] (10μM inhibitor, in relation to YEplac112A1NE-S21 control = 100), the “sucrose transport (%)” value came out at 59%.
